Laboratory results as given in the supplement of paper PMC10307832.

How the values were obtained:
Assay in all cases: relative viability (nuclei count vs DMSO), 5 days (fraction); higher = more cells survive
IPA-3 + Trametinib = compound: C1=CC=C2C(=C1)C=CC(=C2SSC3=C(C=CC4=CC=CC=C43)O)O [IPA-3] + CC(=O)Nc1cccc(-n2c(=O)n(C3CC3)c(=O)c3c(Nc4ccc(I)cc4F)n(C)c(=O)c(C)c32)c1 [Trametinib] (partner 0.02 µM)
In short: (§1)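 Cells from lung cancer lines were seeded into 1536-well plates and, one day later, dosed by pin tool. Treatments were either a single drug or a fixed dose of an anchor drug with five library-drug doses (not always all listed) in √10 steps. After 5 days, nuclei were stained in a one-step fixation (final 0.05% Triton X-100, 1% formaldehyde, 1 ug/ml Hoechst) and counted on 4× images, and relative viability is the treated-to-vehicle nuclei ratio, as the median of duplicate plates.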

RAF265 + Linsitinib = compound: Cn1c(Nc2ccc(C(F)(F)F)cc2)nc2cc(Oc3ccnc(-c4ncc(C(F)(F)F)[nH]4)c3)ccc21 [RAF265] + C[C@]1(O)C[C@@H](c2nc(-c3ccc4ccc(-c5ccccc5)nc4c3)c3c(N)nccn32)C1 [Linsitinib] (partner 1 µM)
In short: as §1

RAF265 + Tozasertib = compound: Cn1c(Nc2ccc(C(F)(F)F)cc2)nc2cc(Oc3ccnc(-c4ncc(C(F)(F)F)[nH]4)c3)ccc21 [RAF265] + Cc1cc(Nc2cc(N3CCN(C)CC3)nc(Sc3ccc(NC(=O)C4CC4)cc3)n2)n[nH]1 [Tozasertib] (partner 0.1 µM)
In short: as §1

IPA-3 + OSI-027 = compound: C1=CC=C2C(=C1)C=CC(=C2SSC3=C(C=CC4=CC=CC=C43)O)O [IPA-3] + COc1cccc2cc(-c3nc([C@H]4CC[C@H](C(=O)O)CC4)n4ncnc(N)c34)[nH]c12 [OSI-027] (partner 0.5 µM)
In short: as §1

Row | Cell Line | relative viability (IPA-3 + Trametinib; first compound 0.2 µM) | relative viability (IPA-3 + Trametinib; first compound 0.6325 µM) | relative viability (IPA-3 + Trametinib; first compound 2 µM) | relative viability (IPA-3 + Trametinib; first compound 6.325 µM) | relative viability (IPA-3 + Trametinib; first compound 20 µM) | relative viability (RAF265 + Linsitinib; first compound 0.01 µM) | relative viability (RAF265 + Linsitinib; first compound 0.03162 µM) | relative viability (RAF265 + Linsitinib; first compound 0.1 µM) | relative viability (RAF265 + Linsitinib; first compound 0.3162 µM) | relative viability (RAF265 + Linsitinib; first compound 1 µM) | relative viability (RAF265 + Tozasertib; first compound 0.01 µM) | relative viability (RAF265 + Tozasertib; first compound 0.03162 µM) | relative viability (RAF265 + Tozasertib; first compound 0.1 µM) | relative viability (RAF265 + Tozasertib; first compound 0.3162 µM) | relative viability (RAF265 + Tozasertib; first compound 1 µM) | relative viability (IPA-3 + OSI-027; first compound 0.2 µM) | relative viability (IPA-3 + OSI-027; first compound 0.6325 µM) | relative viability (IPA-3 + OSI-027; first compound 2 µM) | relative viability (IPA-3 + OSI-027; first compound 6.325 µM) | relative viability (IPA-3 + OSI-027; first compound 20 µM)
1 | HCC-78 | 0.832 | 0.714 | 0.806 | 0.849 | 0.918 | 0.553 | 0.468 | 0.574 | 0.47 | 0.439 | 0.349 | 0.472 | 0.417 | 0.463 | 0.396 | 0.419 | 0.407 | 0.641 | 0.382 | 0.353
2 | HCC-366 | 0.487 | 0.301 | 0.374 | 0.336 | 0.283 | 0.674 | 0.69 | 0.881 | 0.748 | 0.459 | 0.137 | 0.165 | 0.138 | 0.0437 | 0.0369 | 0.978 | 0.709 | 0.802 | 0.93 | 1.07
3 | HCC-827 | 0.553 | 0.518 | 0.585 | 0.597 | 0.675 | 0.968 | 0.973 | 0.978 | – | 0.762 | 0.412 | 0.421 | 0.445 | – | 0.361 | 0.842 | 0.69 | 0.773 | 0.724 | 0.703
4 | HOP-62 | 0.408 | 0.349 | 0.414 | 0.348 | 0.382 | 0.89 | – | 1.07 | 0.976 | 0.604 | 0.338 | 0.326 | 0.406 | 0.515 | 0.225 | 0.985 | 0.808 | 0.937 | 0.783 | 0.616
5 | IA-LM | – | – | – | – | – | 0.641 | 0.532 | 0.536 | 0.732 | 0.404 | – | – | – | – | – | – | – | – | – | –
6 | LC-2-ad | 0.958 | 0.943 | 0.93 | 0.948 | 0.889 | 0.807 | 0.762 | 0.727 | 0.316 | 0.293 | 0.529 | 0.459 | 0.507 | 0.356 | 0.335 | 0.937 | 0.878 | 0.858 | 0.871 | 1.02
7 | LCLC-97TM1 | 0.221 | 0.206 | 0.205 | 0.218 | 0.223 | 0.169 | 0.158 | 0.149 | 0.136 | 0.11 | 0.223 | 0.141 | 0.156 | 0.109 | 0.0904 | 0.403 | 0.521 | 0.436 | 0.498 | 0.502
8 | LCLC-103H | 0.693 | 0.686 | 0.718 | 0.687 | 0.675 | 1.03 | 1.14 | 1.1 | 0.944 | 0.641 | 0.472 | 0.48 | 0.42 | 0.424 | 0.227 | 0.442 | 0.444 | 0.463 | 0.486 | 0.505
9 | LK-2 | 0.904 | 0.752 | 0.721 | 0.846 | 0.934 | 0.615 | 0.555 | 0.67 | 0.671 | 0.351 | 0.164 | 0.166 | 0.153 | 0.178 | 0.152 | 0.183 | 0.214 | 0.194 | 0.27 | 0.165
10 | LOU-NH91 | 0.79 | 0.757 | 0.805 | 0.779 | 0.852 | 1.03 | 0.818 | 1.03 | 0.599 | 0.644 | 0.705 | 0.618 | 0.78 | 0.457 | 0.467 | 0.709 | 0.732 | 0.811 | 0.73 | 0.776
11 | NCI-H522 | 0.828 | 0.792 | 0.822 | 0.875 | 0.711 | – | – | – | – | – | 0.57 | 0.602 | 0.546 | 0.553 | 0.521 | 0.719 | 0.619 | 0.751 | 0.764 | 0.846
12 | NCI-H1299 | – | – | – | – | – | 1 | 0.878 | 0.749 | 0.578 | 0.414 | – | – | – | – | – | – | – | – | – | –
13 | NCI-H1563 | – | – | – | – | – | 1.13 | 1.32 | 1.17 | 1.26 | 1.18 | – | – | – | – | – | 0.841 | 0.794 | 0.74 | 0.828 | 0.716
14 | NCI-H1623 | – | – | – | – | – | – | – | – | – | – | 0.507 | 0.474 | 0.475 | – | 0.392 | 0.466 | 0.436 | 0.431 | 0.413 | 0.375
15 | NCI-H1648 | 0.476 | 0.495 | 0.555 | 0.494 | 0.524 | – | – | – | – | – | 0.425 | 0.431 | 0.598 | 0.466 | 0.417 | 0.258 | 0.276 | 0.281 | 0.278 | 0.245
16 | NCI-H1650 | 0.996 | 0.558 | 0.579 | 0.647 | 0.545 | – | – | – | – | – | 0.377 | 0.425 | 0.473 | 0.446 | 0.304 | 0.763 | 0.515 | 0.676 | 0.724 | 0.727
17 | NCI-H1703 | – | – | – | – | – | 0.43 | 0.561 | 0.819 | 0.171 | 0.251 | – | – | – | – | – | – | – | – | – | –
18 | NCI-H1792 | 0.526 | 0.504 | – | 0.407 | 0.495 | 0.576 | 0.506 | 0.583 | 0.326 | 0.126 | – | – | – | – | – | 0.789 | 0.718 | 0.641 | 0.711 | 0.792
19 | NCI-H2170 | 0.958 | 0.923 | 0.868 | 0.846 | 0.993 | – | – | – | – | – | 0.734 | 0.651 | 0.752 | 0.587 | 0.538 | 0.733 | 0.691 | 0.721 | 0.672 | 0.677
20 | NCI-H2342 | 0.74 | 0.734 | 0.955 | 0.872 | 0.937 | – | – | – | – | – | 0.551 | 0.592 | 0.542 | 0.52 | 0.463 | 0.663 | 0.619 | 0.68 | 0.757 | 0.743
21 | SW 900 | 0.939 | 0.497 | 0.752 | 0.675 | 0.938 | – | – | – | – | – | 0.648 | 0.583 | 0.594 | 0.526 | 0.295 | 0.759 | 0.611 | 0.6 | 0.556 | 0.409
